Laboratory results taken from the NIST ThermoML archive (doi:10.1016/j.fluid.2018.10.006).

Conditions: Fluid (supercritical or subcritical phases), Coaxial cylinder method

CCCCCC [hexane]
Conditions | thermal conductivity [W/m/K]
508.17 K, 3094 kPa | 0.08581
508.17 K, 3095 kPa | 0.08539
508.17 K, 3100 kPa | 0.08334
508.17 K, 3105 kPa | 0.08267
508.17 K, 3108 kPa | 0.08217
508.17 K, 3115 kPa | 0.08124
508.17 K, 3120 kPa | 0.08025
508.17 K, 3125 kPa | 0.08032
508.17 K, 3130 kPa | 0.08032
508.17 K, 3132 kPa | 0.08032
508.92 K, 900 kPa | 0.03769
508.92 K, 1100 kPa | 0.03855
508.92 K, 1234 kPa | 0.03889
508.92 K, 1401 kPa | 0.03933
508.92 K, 1510 kPa | 0.03959
508.92 K, 1603 kPa | 0.03996
508.92 K, 1710 kPa | 0.04032
508.92 K, 1806 kPa | 0.0407
508.92 K, 1908 kPa | 0.04118
508.92 K, 2006 kPa | 0.04167
508.92 K, 2111 kPa | 0.04248
508.92 K, 2210 kPa | 0.043
508.92 K, 2300 kPa | 0.04353
508.92 K, 2409 kPa | 0.04463
508.92 K, 2509 kPa | 0.04579
508.92 K, 2600 kPa | 0.04701
508.92 K, 2650 kPa | 0.04777
508.92 K, 2726 kPa | 0.0491
508.92 K, 2744 kPa | 0.04937
508.92 K, 2752 kPa | 0.04965
508.92 K, 2763 kPa | 0.04993
508.92 K, 2847 kPa | 0.05261
508.92 K, 2898 kPa | 0.05429
508.92 K, 2902 kPa | 0.05464
508.92 K, 2927 kPa | 0.05568
508.92 K, 2955 kPa | 0.05752
508.92 K, 2968 kPa | 0.05888
508.92 K, 2975 kPa | 0.05948
508.92 K, 2985 kPa | 0.06031
508.92 K, 2988 kPa | 0.06094
508.92 K, 2992 kPa | 0.06115
508.92 K, 2999 kPa | 0.06202
508.92 K, 3004 kPa | 0.06246
508.92 K, 3011 kPa | 0.06336
508.92 K, 3015 kPa | 0.06429
508.92 K, 3019 kPa | 0.06477
508.92 K, 3025 kPa | 0.06574
508.92 K, 3028 kPa | 0.06624
508.92 K, 3033 kPa | 0.06751
508.92 K, 3035 kPa | 0.06804
508.92 K, 3039 kPa | 0.06857
508.92 K, 3042 kPa | 0.06938
508.92 K, 3044 kPa | 0.06994
508.92 K, 3048 kPa | 0.07107
508.92 K, 3050 kPa | 0.0715
508.92 K, 3052 kPa | 0.07223
508.92 K, 3055 kPa | 0.07344
508.92 K, 3056 kPa | 0.07375
508.92 K, 3059 kPa | 0.07469
508.92 K, 3060 kPa | 0.07532
508.92 K, 3063 kPa | 0.0763
508.92 K, 3065 kPa | 0.07747
508.92 K, 3067 kPa | 0.07868
508.92 K, 3068 kPa | 0.07903
508.92 K, 3069 kPa | 0.0801
508.92 K, 3070 kPa | 0.08047
508.92 K, 3071 kPa | 0.08084
508.92 K, 3073 kPa | 0.08254
508.92 K, 3074 kPa | 0.08353
508.92 K, 3075 kPa | 0.08412
508.92 K, 3076 kPa | 0.08532
508.92 K, 3077 kPa | 0.08593
508.92 K, 3078 kPa | 0.08697
508.92 K, 3079 kPa | 0.08803
508.92 K, 3080 kPa | 0.08934
508.92 K, 3081 kPa | 0.09069
508.92 K, 3082 kPa | 0.09234
508.92 K, 3083 kPa | 0.09384
508.92 K, 3084 kPa | 0.09568
508.92 K, 3085 kPa | 0.0977
508.92 K, 3086 kPa | 0.1001
508.92 K, 3087 kPa | 0.103
